23 compounds from ChEMBL document CHEMBL3046899, “2D-QSAR of non-benzodiazepines to benzodiazepines receptor (BZR)” (Med Chem Res, 2009) can be followed below.

Molecules are shown by their SMILES.

The first assay concerns the target GABA-A receptor; anion channel. Nature of the assay: Binding affinity to Rattus norvegicus (rat) brain GABA-A receptor benzodiazepine site.
In turn, `CNc1nc2c(N(C)C)ncnc2n1Cc1cccc(C)c1` returned a pIC50 of 5.14.

Another assay addresses GABA-A receptor; anion channel. Nature of the assay: Displacement of [3H]flunitrazepam from Rattus norvegicus (rat) brain GABA-A receptor benzodiazepine site.
`CCCc1c(OC)nc2nc(C(=O)c3ccccc3)cn2c1CC` had a pIC50 of 7.328. Same read-out and setting: in the case of `CCc1c(OC)nc2nc(C(=O)c3ccccc3)cn2c1CC` it was 7.252.

Biological target in the next assay: not listed separately
Nature of the assay: Binding affinity to GABA-A receptor benzodiazepine site (unknown origin). Also on record: species or system Homo sapiens.
`CC(C)(C)COC(=O)c1cc2c(cn1)[nH]c1ccccc12`: the pIC50 was found to be 6.12. On the same count and under the same terms, in the case of `Cc1nccc2c1[nH]c1ccccc12` [HARMAN] it was 4.91. The same measure, in the same setting: in the case of `CC(=O)C(=O)c1cc2c(cn1)[nH]c1ccccc12` it was 8. As to `CCc1nc(C(=O)OC)cc2c1[nH]c1ccccc12`, the negative logarithm of the IC50 (pIC50) stood at 5.12.

The compound `CCOC(=O)c1ncc2[nH]c3ccc(OCc4ccccc4)cc3c2c1COC` showed a negative logarithm of the IC50 (pIC50) of 9. With `O=[N+]([O-])c1cc2c(cn1)[nH]c1ccccc12`, the pIC50 is listed as 6.9. On the same count and under the same terms, with `Oc1cc2c(cn1)[nH]c1ccccc12` the figure was 5.4; with `CC(C)Oc1cc2c(cn1)[nH]c1ccccc12`, 6.29; with `CCCC(=O)c1cc2c(cn1)[nH]c1ccccc12`, 7.64.

On to `CCCCOc1cc2c(cn1)[nH]c1ccccc12`, for which the pIC50 amounted to 7.01. Same read-out and setting: with `CCCCc1cc2c(cn1)[nH]c1ccccc12` the figure was 6.64. `S=C=Nc1cc2c(cn1)[nH]c1ccccc12` had a pIC50 of 8.1. The same measure, in the same setting: in the case of `CCOc1cc2c(cn1)[nH]c1ccccc12` it was 7.62; in that of `Clc1cc2c(cn1)[nH]c1ccccc12`, 7.35.

In turn, `CCCOc1cc2c(cn1)[nH]c1ccccc12` registered a pIC50 of 7.96. For the compound `COC(=O)c1cc2c(cn1)[nH]c1ccccc12` [BETA-CCM], the pIC50 is given as 8.3. Still for that read-out and setting: in the case of `CCOC(=O)c1cc2c(cn1)[nH]c1ccccc12` it was 8.3; in that of `COc1cc2c(cn1)[nH]c1ccccc12`, 6.91; in that of `c1ccc2c(c1)[nH]c1cnccc12` [NORHARMANE], 5.79. The same measure, in the same setting: in the case of `Nc1cc2c(cn1)[nH]c1ccccc12` it was 4.6.
